Patent US11622951B2, “Alpha-aminoadipate for treatment of vision loss and restoring sight” (The Schepens Eye Research Institute, Inc., priority 2013, dated 2023)

What was measured:
[1] = test system: rod photoreceptor cell function; experiment: Scotopic ERG a-wave after retinal progenitor transplantation in Gnat1-/- mice; assay type: in vivo, mouse; details: pretreatment plus retinal progenitor cell transplantation, 21 days post transplantation
Description: At 2 days before transplantation, 2 μl of a solution containing either α-AA (1 μg/μl) or saline (control) was injected unilaterally into the subretinal space of recipient wild-type or Gnat1^−/− mice (>2 months old). The procedure for donor cell preparation was essentially as described by Kinouchi et al, 2003, Nat Neurosci, 6:863-868. Briefly, retinal progenitor cells were isolated from postnatal day 0 (P0) EGFP transgenic mice. Cell suspensions containing approximately 1×10^6 dissociated cells were injected slowly through a glass micropipette into the subretinal space of pretreated recipient mice through the same injection site where either saline or α-AA had been injected 2 days prior.
At 21 days post transplantation, Gnat1−/− mice that had received either α-AA or saline-pretreatment followed by retinal progenitor cell transplantation were analyzed by full-field ERG. Mice were dark adapted for 12 hours and then anesthetized by intraperitoneal injection of ketamine (62.5 mg/kg) and xylazine (12.5 mg/kg). […] A total of six scans were taken and averaged; the a-wave amplitudes were measured from baseline to the peak in the cornea-negative direction. […] Statistical significance was calculated using the Student's t test or ANOVA. […]

[2] = test system: grafted retinal progenitor cells; experiment: Integration of grafted EGFP+ retinal progenitor cells into pretreated wild-type host retina; assay type: in vivo, mouse
Description: Mice were anesthetized by intraperitoneal injection of ketamine (62.5 mg/kg) and xylazine (12.5 mg/kg) and transcardially perfused with phosphate buffered saline (PBS) followed by 4% paraformaldehyde in PBS. Retinal flat-mounts or transverse retinal sections (14 μm) were preblocked with PBS containing 3% bovine serum albumin (Sigma-Aldrich, St. Louis, Mo.) and 0.3% Triton X (Sigma-Aldrich) and incubated, first, with primary antibody overnight, and then with secondary antibody for 1 hour at room temperature. The following antibodies were used: Cy3-conjugated monoclonal antibody against GFAP (1:1000; Sigma), Brn-3b (1:200; Santa Cruz Biotechnology; Santa Cruz, Calif.), mouse anti-rhodopsin (1:4000; Rho1D4), chick anti-cone-opsin (1:300), and Cy-2, Cy-3 or Cy-5-conjugated secondary antibody (Jackson ImmunoResearch; West Grove, Pa.). Assessment of morphological integration were quantified by counting EGFP+ cells located outside of transplanted cell clusters in retinal whole-mounts. Statistical significance was determined by either the two tailed student t test or ANOVA.
At 2 days before transplantation, 2 μl of a solution containing either α-AA (1 μg/μl) or saline (control) was injected unilaterally into the subretinal space of recipient wild-type or Gnat1^−/− mice (>2 months old). The procedure for donor cell preparation was essentially as described by Kinouchi et al, 2003, Nat Neurosci, 6:863-868. Briefly, retinal progenitor cells were isolated from postnatal day 0 (P0) EGFP transgenic mice. […]
If transient disruption of retinal glia with α-AA promotes morphological integration of grafted retinal progenitors in vivo was next investigated. […] Thus, in the following studies, cell transplantation was performed at day 2 after α-AA pretreatment when temporal disruption of residential glial structure by α-AA was detected that effectively ameliorates the host barrier to cell integration and promotes grafted cell migration into the host retina.

NC(CCCC(=O)O)C(=O)O (stereo not drawn) [α-AA, alpha-aminoadipate]
ERG a-wave (rod photoreceptor response) [1]: a typical a-wave was detected
number of cells repopulated the host retina ([2]; transplantation performed after day 5 post treatment): drastically diminished
increase in number of engrafted cells bearing long neurites (>3 body length) ([2]; wild-type hosts, three weeks post transplantation, vs saline-treated or untreated retinas): 7-11 fold
increase in the number of EGFP+ cells repopulated into the host retina ([2]; wild-type hosts, transplantation day 2 after pretreatment, three weeks post transplantation, vs saline-treated or untreated retinas): 3-5 fold
